Measurements: patent US20070031511A1, “Method of treatment” (priority 2003, published 2007)
Read-outs that look alike come from different tables or passages of the source. Where a SMILES comes first, the peptide text is derived from it. Where no end group is shown, it is not given here. [ ]: non-standard residue; d: D form. pGlu = O=C1CC[C@@H](C(=O)O)N1

Columns and labels:
[1] = Quenching of peptide tryptophan fluorescence by ferric ions (stoichiometry, apparent Kd); assay type: binding; conditions: 10 mM sodium acetate pH 4.0, 100 mM NaCl, 0.005% Tween 20; mean ± S.E.; read-out: Kd (μM), apparent dissociation constant for ferric ions
Description: The tryptophan fluorescence of peptide solutions was measured in 3 mL quartz cuvettes thermostated at […], with a Spex Fluorolog-2 spectrofluorimeter (Spex Industries, Edison, N.J.), with the excitation and emission wavelengths set at 290 and 345 nm, respectively. The quenching of tryptophan fluorescence induced by the binding of metal ions was used to calculate the fraction of binding sites occupied, fa: fa=(yf−y)/(yf−yb) where y is the fluorescence signal at a given concentration of metal ions and yb and yf are the signals when the binding sites are fully occupied and unoccupied, respectively (Winzor et al, 1995). The stoichiometry, p, and apparent dissociation constant, Kd, were then obtained, using the program Sigmastat (Jandel Scientific, San Rafael, Calif.), from the intercept and slope of a linear regression of the data transformed as described by Winzor and Sawyer (1995) in terms of the equation Cs/fa=pCa+Kd/(1−fa) where Cs is the total concentration of metal ions, and Ca is the total concentration of glycine-extended gastrin17. For the bismuth binding studies, the data was fitted by non-linear regression with the program Sigmaplot (Jandel Scientific, San Rafael, Calif.) to the equations for models with one binding site or two binding sites with identical affinities: fa=x/(Kd1+x) or to the model with two binding sites with different affinities: fa=(Kd1·x+Kd2·x+2x^2)/2(Kd1·Kd2+Kd1·x+Kd2·x+x^2) where x is the concentration of free metal ions, Kd1 is the first site dissociation constant and Kd2 is the second site dissociation constant. For the one-site model the value of x at any given total concentration of metal ions was obtained by exact solution of the appropriate quadratic (Malby et al, 2001). For the two-site models the value of x was obtained by an iterative Newton-Raphson procedure (Linse et al, 1991). Absorption Spectroscopy
The tryptophan fluorescence of progastrin6-80, glycine-extended gastrin17 and related peptides was measured in the presence of increasing concentrations of ferric ions in 10 mM sodium acetate, pH 4.0, 100 mM NaCl, 0.005% Tween 20. […] Values from the indicated number of independent experiments were combined to obtain the mean values (±S.E.) presented above. No binding of ferric ions to Ggly1-4 or Ggly12-18 was observed.
The tryptophan fluorescence of amidated gastrin17 and related peptides was measured in the presence of increasing concentrations of ferric ions at pH 4.0 (8). Values of the stoichiometry and the apparent dissociation constant (Kd) were obtained from linear transformations of the data presented in FIG. 20A by least squares fitting. Values from the indicated number of independent experiments were combined to obtain the mean values (±S.E.) presented above.

IMGE-5 cells [2] = test: IMGE-5 cell proliferation, MTT assay; assay type: cell-based, mice; conditions: MTT assay, peptides shown at 1 nM (FIGS. 7A, 8A)
Description: (§1) The IMGE-5 cell line was established from the gastric mucosa of mice transgenic for a temperature-sensitive mutant of the SV40 large T antigen (Hollande et al, 2001). IMGE-5 cells were generally grown at 33° C. in DMEM containing 1 unit/ml γ-interferon, 10% FBS, 100 U/ml penicillin, and 100 μg/ml streptomycin (permissive conditions). For all experiments, cells were transferred to 39° C. in the same medium without […] (non-permissive conditions), where they display differentiated characteristics such as expression of functional adherens and tight junctions. All experiments have been performed on cells between passages 20 and 35.
A colorimetric assay was used to measure cell proliferation. Briefly, IMGE-5 cells were seeded in a 96-well plate at a density of 10^4 cells/well in DMEM containing 10% FBS and antibiotics. The following day, cells were synchronized in Go by incubation for 24 h in the same medium lacking FBS. The medium was replaced the next day with fresh medium containing 1% FBS and antibiotics and the peptides under investigation, and incubation was continued for 72 h. 15 μl of 5 mg/ml 3-(4,5-dimethylthiazol-2-yl)-2-5-diphenyltetrazolium bromide (MTT, Sigma, St Louis Mo.) was added per well, and the plate was incubated at 37° C. for 4 h before the medium was discarded. 200 μl 40 mM HCl in isopropanol was added to lyse the cells, and the absorbance at 570 nm was read on a BioRad Model 550 Microplate reader (BioRad, Hercules, Calif.).

IMGE-5 cells [3] = test: Wound healing / cell migration assay; assay type: cell-based, mice; conditions: wound healing assay, fragments and mutants shown at 1 nM (FIGS. 7B, 8B)
Description: as §1
In order to assess the effects of different stimuli on cell migration, wound healing experiments were performed as detailed elsewhere (Hollande et al, 1997). In brief, IMGE-5 cells were grown in 12-well plates in DMEM at 33° C. until they reached 80% confluence, then shifted to 39° C. and starved of serum for 24 h. The confluent monolayer was wounded using a 20 μl-pipette tip, and cells were then washed 3 times with phosphate-buffered saline (PBS: 2.7 mM KCl, 1.5 MM KH2PO4, 142 mM NaCl, and 10 mM Na2HPO4, pH 6.95) and treated with or without different compounds in DMEM with antibiotics. Morphology and migration of cells were observed and photographed immediately, and after treatment for 17 and 24 h. Wound width was measured at six different positions on the 24 h photographs, and averages calculated.

[4] = Solubility of peptides in NMR sample preparation; assay type: physicochemical; conditions: NMR sample conditions, pH 5.3
Description: For the subsequent experiments, samples were prepared for NMR spectroscopy by dissolving 2.5 mg of peptide in 0.6 ml of 10% DMSO/10% ^2H2O/80% H2O at 278 K. The pH was adjusted with small amounts of 1M NaO^2H or ^2HCl to pH 5.3. ^1H chemical shifts were referenced to 2,2-dimethyl-2-silapenthane-5-sulfonate at 0 ppm via the chemical shift of the H2O resonance or an impurity at 0.15 ppm. NMR spectra were recorded on Bruker DRX-600 and AMX-500 instruments, as described previously (Barnham et al, 1999).
The peptides LE5AYG, LE5A, E5AY and E5A (approximately 2 mM) were dissolved in H2O with 5 or 10% ^2H2O. […] Sequence-specific ^1H NMR resonance assignments were made from two-dimensional nuclear Overhauser enhancement spectroscopy (NOESY) and total correlation spectroscopy (TOCSY).

[5] = target: T1, recombinant human progastrin6-80 (Homo sapiens, UniProt P01350); test: Competition of metal ions with 59Fe3+ for binding to progastrin6-80; conditions: metal ions 100 μM, 59Fe3+ 10 μM, progastrin6-80 5.6 μM
T1 construct: made in house
T1 sequence (P01350 27-101): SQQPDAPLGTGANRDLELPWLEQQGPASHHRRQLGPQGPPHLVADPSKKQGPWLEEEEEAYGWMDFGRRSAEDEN
Description: In order to determine the specificity of the interaction between progastrin and metal ions, the binding of metal ions to recombinant human progastrin6-80 was determined by measuring their ability to compete with radioactive ^59Fe^3+ for binding to the protein by the following methods (Baldwin et al, 2001).
Progastrin6-80 (5.6 μM) in pH 2.8 buffer (10 mM sodium formate, pH 2.8, 100 mM NaCl, 0.005% Tween 20) was incubated for 30 min at 4° C. with ^59Fe^3+ ions (10 μM, 23.6 cpm/pmol) in the presence of several di- and trivalent metal ions (100 μM). Excess radioactivity was removed by overnight dialysis (SpectraPor dialysis tubing, molecular weight cut-off 3,500, Spectrum Labs., Rancho Dominguez, Calif.) at 4° C. against pH 4.0 buffer (10 mM sodium acetate, pH 4.0, 100 mM NaCl, 0.005% Tween 20), containing 1 µM EDTA. The radioactivity associated with progastrin6-80 was determined by counting aliquots of the internal and external solutions in a γ-counter (LKB-Wallac, Turku, Finland).

[6] = read-out: Apparent first dissociation constant of complex with ferric ions, cited from earlier work
rectal mucosa = test: Proliferation in the rectal mucosa of rectally defunctioned rats (metaphase-arrested cells); assay type: in vivo; conditions: infused intraperitoneally 2.5 nmol/kg/hr, 4 weeks
Description: DFO (400 mg/kg) was administered intraperitoneally thrice weekly, and bismuth ions were administered as colloidal bismuth subcitrate (135 mg/kg/12 hours) by oral gavage 5 days per week. After 4 weeks, the rats were injected with vincristine to arrest cycling cells in metaphase, and sacrificed 3 hrs later. Crypt heights in the rectal mucosa, and the number of metaphase arrested cells per crypt, were then determined microscopically.

[7] = pH 4.0; Ref. 8 given in table; read-out: Kd (μM), apparent dissociation constant for ferric ions; cited from earlier work

Compound | Kd [1] | Stimulation of IMGE-5 cell proliferation (IMGE-5 cells [2]) | Stimulation of IMGE-5 cell migration (IMGE-5 cells [3]) | other results
CSCC[C@H](NC(=O)[C@H](Cc1c[nH]c2ccccc12)NC(=O)CNC(=O)[C@H](Cc1ccc(O)cc1)NC(=O)[C@H](C)NC(=O)[C@H](C)NC(=O)[C@H](C)NC(=O)[C@H](C)NC(=O)[C@H](C)NC(=O)[C@H](C)NC(=O)[C@H](CC(C)C)NC(=O)[C@H](Cc1c[nH]c2ccccc12)NC(=O)[C@@H]1CCCN1C(=O)CNC(=O)[C@@H]1CCC(=O)N1)C(=O)N[C@@H](CC(=O)O)C(=O)N[C@@H](Cc1ccccc1)C(=O)NCC(=O)O [GglyE6-10A] ([pGlu]GPWLAAAAAAYGWMDFG-OH) | 1.2 ± 0.11 µM | inactive | inactive | Solubility [4]: Poor solubility
CSCC[C@H](NC(=O)[C@H](Cc1c[nH]c2ccccc12)NC(=O)CNC(=O)[C@H](Cc1ccc(O)cc1)NC(=O)[C@H](C)NC(=O)[C@H](C)NC(=O)[C@H](C)NC(=O)[C@H](C)NC(=O)[C@H](CCC(=O)O)NC(=O)[C@H](CCC(=O)O)NC(=O)[C@H](CC(C)C)NC(=O)[C@H](Cc1c[nH]c2ccccc12)NC(=O)[C@@H]1CCCN1C(=O)CNC(=O)[C@@H]1CCC(=O)N1)C(=O)N[C@@H](CC(=O)O)C(=O)N[C@@H](Cc1ccccc1)C(=O)NCC(=O)O [GglyE8-10A] ([pGlu]GPWLEEAAAAYGWMDFG-OH) | 0.37 ± 0.07 µM | active in proliferation assays, although less so than Ggly | – | Solubility [4]: Poor solubility
[Fe+3] [ferric ions] | – | – | – | Ability to compete with 59Fe3+ for binding to progastrin6-80 [5]: able to compete effectively
[Fe+2] [ferrous ions] | – | – | – | Ability to compete with 59Fe3+ for binding to progastrin6-80 [5]: able to compete effectively
O=C(O)CN(CC(=O)O)CC(=O)O [nitrilotriacetic acid] | – | – | – | Kd ([6]; pH 4.0): 830 nM; Kd ([6]; pH 7.6): 0.19 nM
GglyE7A: Ggly mutant, Glu7 replaced by Ala, SEQ ID NO:11 ([pGlu]GPWLEAEEEAYGWMDFG; ends and bridges not checked) | 0.2 ± 0.01 µM | inactive | inactive | Stimulation of rectal mucosal proliferation (rectal mucosa): able to stimulate mucosal proliferation as well as Ggly
LE5AYGWMDFG (LEEEEEAYGWMDFG; listed as Homo sapiens) [Ggly5-18] | – | to the same extent as Ggly | to the same extent as Ggly | Stimulation of IMGE-5 cell proliferation (IMGE-5 cells [2]; listed as LE5AYGWMDFG): fully active; Stimulation of IMGE-5 cell migration (IMGE-5 cells [3]; listed as LE5AYGWMDFG): fully active; Kd [7]: 0.58 ± 0.19 µM
